Source: ChEMBL document CHEMBL1255274, “Microdialysis study of imipenem distribution in the peritoneal fluid of rats with experimental acute pancreatitis” (Antimicrob Agents Chemother, 2008)

Tests used:
Assay type in all cases: ADME, organism-based
Design in all cases: dose 30 mg/kg, route intravenous
[1] = Cmax in pancreatitis Sprague-Dawley rat blood at 30 mg/kg, iv after 30 mins
[2] = Cmax in pancreatitis Sprague-Dawley rat peritoneal fluid at 30 mg/kg, iv after 30 mins
[3] = Tmax in pancreatitis Sprague-Dawley rat peritoneal fluid at 30 mg/kg, iv after 30 mins
[4] = Selectivity ratio of AUC in pancreatitis Sprague-Dawley rat peritoneal fluid to AUC in pancreatitis Sprague-Dawley rat blood at 30 mg/kg, iv after 30 mins; details: read-out: Ratio AUC
[5] = Half life pancreatitis Sprague-Dawley rat peritoneal fluid at 30 mg/kg, iv after 30 mins
[6] = Half life in pancreatitis Sprague-Dawley rat blood at 30 mg/kg, iv after 30 mins
[7] = Clearance in pancreatitis Sprague-Dawley rat blood at 30 mg/kg, iv after 30 mins
[8] = Tmax in pancreatitis Sprague-Dawley rat blood at 30 mg/kg, iv after 30 mins

C[C@@H](O)[C@H]1C(=O)N2C(C(=O)O)=C(SCCN=CN)C[C@H]12 [IMIPENEM ANHYDROUS]
Cmax [1]: 53.9 µg/mL | Cmax [2]: 51.8 µg/mL | Tmax [3]: 36.7 min | Kp at 0.5 h [4]: 1.08 | half-life [5]: 17.6 min | half-life [6]: 17.3 min | clearance [7]: 17 mL/min/kg | Tmax [8]: 35 min
